In PubChem BioAssay (NCI):
Values joined by “and” are separate entries in the source; they are usually repeats but may differ in a detail not shown here. Equal entries are not always repeated.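 Compound exposure: 48 hours, 5 concentrations, 96-well plates. The concentration for 50% growth inhibition is given as GI50. Definition used: TGI = concentration required for complete inhibition of growth.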

What was measured:
Assay in all cases: inhibition of tumour cell growth, NCI panel, 48 h
BT-549 breast = system: BT-549 breast
HCT-15 colon = system: HCT-15 colon
HT29 colon = system: HT29 colon
LOX IMVI melanoma = system: LOX IMVI melanoma
MDA-MB-435 = system: MDA-MB-435
MOLT-4 leukemia = system: MOLT-4 leukemia
NCI/ADR-RES ovarian = system: NCI/ADR-RES ovarian
OVCAR-3 ovarian = system: OVCAR-3 ovarian
OVCAR-4 ovarian = system: OVCAR-4 ovarian
RXF 393 renal = system: RXF 393 renal

Row | Compound | TGI (BT-549 breast) | TGI (HCT-15 colon) | TGI (HT29 colon) | TGI (LOX IMVI melanoma) | TGI (MDA-MB-435) | TGI (MOLT-4 leukemia) | TGI (NCI/ADR-RES ovarian) | TGI (OVCAR-3 ovarian) | TGI (OVCAR-4 ovarian) | TGI (RXF 393 renal) | GI50 (BT-549 breast) | GI50 (HT29 colon) | GI50 (MDA-MB-435) | GI50 (MOLT-4 leukemia) | GI50 (NCI/ADR-RES ovarian) | GI50 (RXF 393 renal) | GI50 (HCT-15 colon) | GI50 (LOX IMVI melanoma) | GI50 (OVCAR-3 ovarian) | GI50 (OVCAR-4 ovarian)
1 | OCC1OC(n2cnc3c2NC=NC[C@H]3O)C(Cl)C1O (stereo not given in full) | > 100 µM | > 100 µM | > 100 µM | > 100 µM | > 100 µM | > 100 µM | > 100 µM | > 100 µM | > 100 µM | – | – | – | – | – | – | – | – | – | – | –
2 | Cc1cc(NC(=S)SCc2ccc(F)cc2)c([N+](=O)[O-])cc1C | 59.1 µM | 46.4 µM | 34.6 µM | – | 73.2 µM | 16.9 µM | 62.2 µM | 54.6 µM | > 100 µM | 82.9 µM | – | – | – | – | – | – | – | – | – | –
3 | CCOC(=O)C1SC(=Nc2ccc(C)c(C)c2)N=C1C (stereo not given) | – | > 100 µM | > 100 µM | > 100 µM | – | > 100 µM | – | > 100 µM | > 100 µM | – | – | – | – | – | – | – | – | – | – | –
4 | CCOC(=O)N[C@@H]1C(CC(=O)OC)O[C@H]2OC(C)(C)O[C@H]21 (stereo not given in full) | – | > 100 µM | > 100 µM | > 100 µM | – | > 100 µM | – | > 100 µM | > 100 µM | > 100 µM | – | – | – | – | – | – | – | – | – | –
5 | COc1ccc(CN2CC(C)(C)C2=O)c(OC)c1 | – | > 100 µM | > 100 µM | > 100 µM | – | > 100 µM | – | > 100 µM | > 100 µM | > 100 µM | – | – | – | – | – | – | – | – | – | –
6 | CC12OC(C(=O)C13CC3)C1C(=O)c3ccc4c(ccc5ccccc54)c3C(=O)C12 (stereo not given) | 55.9 µM | – | > 100 µM | – | > 100 µM | > 100 µM | > 100 µM | – | – | 61.8 µM | 29.6 µM | 55.9 µM | 35.2 µM | 28.9 µM | 41.2 µM | 22500 nM | – | – | – | –
7 | Clc1cc(Cl)c2ns[s+]c2c1Cl | – | – | > 100 µM | > 100 µM | – | > 100 µM | – | > 100 µM | > 100 µM | > 100 µM | – | – | – | – | – | – | – | – | – | –
8 | S=c1ssc(N2CCOCC2)c1Cl | – | > 100 µM | > 100 µM | 37.8 µM | 73.7 µM | > 100 µM | > 100 µM | > 100 µM | > 100 µM | > 100 µM | – | 47.4 µM | 25 µM | 31.8 µM | 43.9 µM | 36000 nM | 23.6 µM | 17.7 µM | 39300 nM | > 100 µM
9 | Cc1cc(C)c(NC(=O)c2sc3nc4c(cc3c2N)C(=O)CCC4)c(C)c1 | > 35.4 µM | > 100 µM | 11.1 µM | > 100 µM | – | > 100 µM | 6.45 µM | 8.62 µM | > 100 µM | 4.43 µM | 7.29 µM | 3.09 µM | – | 5.68 µM | 2.08 µM | 1320 nM | 2.59 µM | 5.39 µM | 2460 nM | 6.89 µM
10 | CCOC(=O)/C(C)=C(/O)C(=O)OCC | – | > 100 µM | > 100 µM | > 100 µM | – | > 100 µM | – | > 100 µM | > 100 µM | > 100 µM | – | – | – | – | – | – | – | – | – | –
11 | COc1cc2[nH]c3c(c2cc1OC)CCN[C@]31CC[C@]2(CC3c4c(cc(OC)c(O)c42)CCN3C)C[C@H]1OC (stereo not given in full) | – | 43.1 µM | 63.3 µM | 56 µM | – | 33.8 µM | – | 46.2 µM | 43.3 µM | 18.6 µM | – | – | – | – | – | – | – | – | – | –
12 | COc1ccc(-c2nc3ccccn3c2/C=C/C(=O)c2cc(OC)c(OC)c(OC)c2)cc1OC | 3.2 µM | 35.1 µM | > 100 µM | 6.62 µM | – | – | 8.04 µM | 8.56 µM | – | – | 0.899 µM | 3.2 µM | – | – | 2.18 µM | – | 3.73 µM | 2.26 µM | 2470 nM | –
13 | CC1=C(/C=C/Cl)CC(Cl)C(C)(Cl)C1 (stereo not given) | > 100 µM | > 100 µM | > 100 µM | > 100 µM | > 100 µM | > 100 µM | > 100 µM | – | > 100 µM | 71.3 µM | – | – | – | – | – | – | – | – | – | –
14 | COc1cc(/C=C/c2ccc(OC)c(O)c2)cc(OC)c1 | – | 24.2 µM | 32.3 µM | 34.2 µM | – | 15.7 µM | – | 4.88 µM | 67.9 µM | 3.88 µM | – | – | – | – | – | – | – | – | – | –
15 | COc1cc(Cc2nccc3cc(OC)c(OC)cc23)c(C(C)=O)cc1OC | – | 300 µM and > 750 µM | 300 µM and 626 µM | 300 µM and > 750 µM | – | > 750 µM | > 300 µM | 300 µM and 203 µM | 52.3 µM and 197 µM | 300 µM and > 750 µM | – | 96.8 µM and 140 µM | – | > 750 µM | – | > 750000 nM | 195 µM and 249 µM | 150 µM and 94 µM | 86000 nM and 27700 nM | 13.2 µM
16 | CC(C)c1c(O)c(O)c2c(c1O)C(=O)C(O)=C1C(C)(C)CCC[C@@]12C | 13 µM | 13.2 µM | 10.2 µM | 13.8 µM | 10.1 µM | 5.99 µM | – | 16.2 µM | 16.7 µM | 9.24 µM | – | – | – | – | – | – | – | – | – | –
17 | [N-]=[N+]=C1C(=O)NN=C1c1ccccc1 | – | > 100 µM | > 100 µM | > 100 µM | – | > 100 µM | – | > 100 µM | > 100 µM | > 100 µM | – | – | – | – | – | – | – | – | – | –
18 | CCCCC(CC)COC(=O)C[N+](C)(C)CCOC(c1ccccc1)c1ccccc1 (stereo not given) | – | 31.2 µM | 13.1 µM | 3.02 µM | 3.09 µM | 6.66 µM | 70.3 µM | 3.64 µM | 6.99 µM | 3.34 µM | – | 3.55 µM | 1.71 µM | 2.5 µM | 23.5 µM | 1480 nM | 13.8 µM | 1.66 µM | 1790 nM | 2.4 µM
19 | CCCC(CCC)NCC(O)c1cc(-c2ccc(C(F)(F)F)cc2)nc(C(F)(F)F)c1 (stereo not given) | – | 3.53 µM | 3.32 µM | 2.97 µM | 3.74 µM | 3.84 µM | 3.25 µM | 3.38 µM | 3.32 µM | 2.82 µM | – | 1.83 µM | 1.96 µM | 1.89 µM | 1.63 µM | 1470 nM | 1.77 µM | 1.53 µM | 1930 nM | 1.83 µM
20 | CC1=CC(C)(C)N=C2SC(c3ccc(N)cc3)=NN12 | – | > 58.7 µM | 98.2 µM | > 100 µM | – | > 100 µM | – | > 100 µM | > 100 µM | > 100 µM | – | – | – | – | – | – | – | – | – | –
21 | CC1=[N+]([O-])c2ccccc2C(=O)C1=O | – | > 100 µM | > 100 µM | > 100 µM | – | > 100 µM | – | > 100 µM | > 100 µM | > 100 µM | – | – | – | – | – | – | – | – | – | –
